Where a name gives a salt, the structure may show the parent alone.
Experiments:
[1] = target: human CCR5 stably over-expressing CHO cell (CCR5/CHO cell) (Homo sapiens, UniProt P51681); experiment: Inhibition test on the binding of RANTES to CCR5 (RANTES-induced transient increase of Ca ion); type: cell-based; settings: inhibition of Ca2+ transient increase induced by 10 nM recombinant human RANTES in CCR5/CHO cells
Description: (1) Isolation of Human CCR5 Gene
Human placental cDNA was prepared using Marathon cDNA amplification kit (Clontech). PCR primers hCCR5XbaI-F1: 5′-[sequence]-3′ (SEQ ID NO:1) and hCCR5XbaI-R1: 5′-[sequence]-3′ (SEQ ID NO:2) were designed based on the sequence of GenBank U54994.
Using the human placental cDNA as the template and using Ex Taq (Takara), PCR reaction (2 minutes at 95° C.→(30 seconds at 95° C., 45 seconds at 60° C., 1 minute at 72° C.)×35 times) was carried out. The thus amplified PCR product was subjected to a 1% agarose gel electrophoresis, purified using QIAquick Gel Extraction Kit (QUIAGEN) and then digested with a restriction enzyme XbaI. […] By preparing the resulting plasmid pEF-BOS-bsr/hCCR5, its DNA sequence was verified. […]
The thus established human CCR5 stably over-expressing CHO cell (CCR5/CHO cell) was suspended in Ham's F-12 medium containing FBS (10%) and dispensed in 3.0×10^6 cells/well portions into a 96 well plate. […] Transient increase in the intracellular Ca^2+ concentration induced by the human RANTES was measured using a Ca^2+ detector for 96 well use (Hamamatsu Photonics), and inhibition ratio (%) of the test compound was calculated by the following calculation formula. Inhibition ratio=(Ec−Ea)/Ec×100 • Ec: measured value of Ca^2+ transient increase by RANTES • Ea: measured value of Ca^2+ transient increase by RANTES when a test compound was added

[2] = target: T1, human CCR2-expressing cell, human monocyte cell strain THP-1 (Homo sapiens, UniProt P41597); experiment: Inhibition test on the binding of MCP-1 to CCR2 (MCP-1-induced transient increase of Ca ion); type: cell-based; settings: inhibition of Ca2+ transient increase induced by 30 nM recombinant human MCP-1 in THP-1 cells
T1 construct: A human CCR2-expressing cell, e.g., a human monocyte cell strain THP-1 (ATCC No. TIB-202); host or cells: THP-1
T1 sequence (P41597 1-360 isoform P41597-2): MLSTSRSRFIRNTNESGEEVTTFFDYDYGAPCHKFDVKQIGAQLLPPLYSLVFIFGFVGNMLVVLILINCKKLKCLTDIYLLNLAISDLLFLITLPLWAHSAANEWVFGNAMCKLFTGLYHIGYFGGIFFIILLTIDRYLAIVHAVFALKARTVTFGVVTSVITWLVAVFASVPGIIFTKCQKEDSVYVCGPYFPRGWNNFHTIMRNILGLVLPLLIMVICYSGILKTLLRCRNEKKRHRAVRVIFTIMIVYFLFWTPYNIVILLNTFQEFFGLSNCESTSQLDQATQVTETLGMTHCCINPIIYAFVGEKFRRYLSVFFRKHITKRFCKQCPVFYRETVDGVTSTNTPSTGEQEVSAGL
Description: An assay system for finding a compound having adsorption inhibition effect on CCR5 directional HIV strain was described in the foregoing, and it is possible as a matter of course to find a compound capable of inhibiting the activity of CCR5 or a ligand thereof using this system. In the same manner, it is possible to find a compound capable of inhibiting the activity of other chemokine receptor or a ligand thereof. For example, a system for finding a compound capable of inhibiting the activity of CCR2 or a ligand thereof can be constructed. […]
A human CCR2-expressing cell, e.g., a human monocyte cell strain THP-1 (ATCC No. TIB-202), was suspended in RPMI 1640 medium containing FBS (10%), Fura-2AM (5 μM), Probenecid (2.5 mM) and HEPES (20 mM, pH 7.4) to a density of 5.0×10^6 cells/ml and incubated at 37° C. for 30 minutes under shaded condition. […] Transient increase in the intracellular Ca 2+concentration induced by the human MCP-1 was measured using a Ca^2+ detector for 96 well use (Hamamatsu Photonics), and inhibition ratio (%) of the test compound was calculated by the following calculation formula. Inhibition ratio=(Ec−Ea)/Ec×100 • Ec: measured value of Ca^2+ transient increase by MCP-1 • Ea: measured value of Ca^2+ transient increase by MCP-1 when a test compound was added

Sequence of human CCR5 stably over-expressing CHO cell (CCR5/CHO cell) (P51681 whole entry): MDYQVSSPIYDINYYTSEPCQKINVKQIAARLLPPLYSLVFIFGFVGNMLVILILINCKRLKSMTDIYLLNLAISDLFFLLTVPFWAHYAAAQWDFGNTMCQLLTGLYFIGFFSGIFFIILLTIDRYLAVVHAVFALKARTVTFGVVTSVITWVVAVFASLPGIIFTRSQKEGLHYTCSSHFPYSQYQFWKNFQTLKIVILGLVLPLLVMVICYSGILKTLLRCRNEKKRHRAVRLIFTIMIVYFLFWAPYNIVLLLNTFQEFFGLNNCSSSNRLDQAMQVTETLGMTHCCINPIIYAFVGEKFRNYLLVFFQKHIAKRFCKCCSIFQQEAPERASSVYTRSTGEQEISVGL

Compound	IC50 [1] [µM]	IC50 [2] [µM]
CCCCN1C(=O)C(CC2CCCCC2)NC(=O)C12CCN(Cc1ccc3c(c1)OCCO3)CC2 (stereo not drawn) [Example 2(1), 9-(1,4-benzodioxan-6-ylmethyl)-1-butyl-3-cyclohexylmethyl-2,5-dioxo-1,4,9-triazaspiro[5.5]undecane.hydrochloride]	0.05	–
CCCCN1C(=O)C(CC2CCCCC2)NC(=O)C12CCN(Cc1c[nH]c(-c3ccccc3)n1)CC2 (stereo not drawn) [Example 2(2), 1-butyl-3-cyclohexylmethyl-2,5-dioxo-9-(2-phenylimidazol-4-ylmethyl)-1,4,9-triazaspiro[5.5]undecane.2 hydrochloride]	0.05	–
CCCN1C(=O)[C@H](CCCCNC(=O)OCc2ccccc2)NC(=O)C12CCN(CCc1ccccc1)CC2 [Example 5(2), (3S)-1-propyl-2,5-dioxo-3-(4-(N-benzyloxycarbonyl)aminobutyl)-9-(2-phenylethyl)-1,4,9-triazaspiro[5.5]undecane.hydrochloride]	–	3

From patent publication US7119091B2, “Triazaspiro[5.5]undecane derivatives and pharmaceutical compositions comprising thereof, as an active ingredient” (Ono Pharmaceutical Co., Ltd., priority 1999, dated 2006)
